# Active and inactive are the calls of the source. The rule behind the calls is not given here.
# What was measured:
# A549 = assay: Cytotoxicity against human A549 cells after 48 hrs by MTT assay; format: functional, cell-based; conditions: A549, 48 h
# DU-145 = assay: Cytotoxicity against human DU145 cells after 48 hrs by MTT assay; format: functional, cell-based; conditions: DU-145, 48 h
# BT-549 = assay: Cytotoxicity against human BT549 cells after 48 hrs by MTT assay; format: functional, cell-based; conditions: BT-549, 48 h
# MDA-MB-231 [1] = assay: Cytotoxicity against human MDA-MB-231 cells after 48 hrs by MTT assay; format: functional, cell-based; conditions: MDA-MB-231, 48 h
# MCF-10A = assay: Cytotoxicity against human MCF10A cells after 48 hrs by MTT assay; format: cell-based
# MDA-MB-231 [2] = assay: Induction of nuclear shrinkage in human MDA-MB-231 cells at IC50 after 24 to 48 hrs by phase contrast microscopic analysis; format: functional, cell-based
# MDA-MB-231 [3] = assay: Induction of detachment of human MDA-MB-231 cells at compound IC50 after 24 to 48 hrs by phase contrast microscopic analysis; format: functional, cell-based
# MDA-MB-231 [4] = assay: Antimigratory activity in human MDA-MB-231 cells at compound IC50 after 24 to 48 hrs by wound healing assay relative to control; format: functional, cell-based
# MDA-MB-231 [5] = assay: Induction of cell cycle arrest in human MDA-MB-231 cells assessed as accumulation at G0/G1 phase at 2.5 uM after 24 hrs by propidium iodide staining based flow cytometry (reference value: 55.02%); format: functional
# MDA-MB-231 [6] = assay: Disruption of F-actin-mediated stress fiber formation around nucleus in human MDA-MB-231 cells at compound IC50 after 12 hrs by rhodamine-phalloidin/[…] staining-based confocal microscopic analysis; format: functional, cell-based
# MDA-MB-231 [7] = assay: Induction of cell cycle arrest in human MDA-MB-231 cells assessed as accumulation at […] at 2.5 uM after 24 hrs by propidium iodide staining based flow cytometry (reference value: 26.12%); format: functional
# MDA-MB-231 [8] = assay: Induction of cell cycle arrest in human MDA-MB-231 cells assessed as accumulation at G2/M phase at 2.5 uM after 24 hrs by propidium iodide staining based flow cytometry (reference value: 18.86%); format: functional
# MDA-MB-231 [9] = assay: Induction of cell cycle arrest in human MDA-MB-231 cells assessed as accumulation at G0/G1 phase at 5 uM after 24 hrs by propidium iodide staining based flow cytometry (reference value: 55.02%); format: functional
# MDA-MB-231 [10] = assay: Induction of cell cycle arrest in human MDA-MB-231 cells assessed as accumulation at […] at 5 uM after 24 hrs by propidium iodide staining based flow cytometry (reference value: 26.12%); format: functional
# MDA-MB-231 [11] = assay: Induction of cell cycle arrest in human MDA-MB-231 cells assessed as accumulation at G2/M phase at 5 uM after 24 hrs by propidium iodide staining based flow cytometry (reference value: 18.86%); format: functional
# MDA-MB-231 [12] = assay: Induction of cell cycle arrest in human MDA-MB-231 cells assessed as accumulation at G0/G1 phase at 10 uM after 24 hrs by propidium iodide staining based flow cytometry (reference value: 55.02%); format: functional
# MDA-MB-231 [13] = assay: Induction of cell cycle arrest in human MDA-MB-231 cells assessed as accumulation at […] at 10 uM after 24 hrs by propidium iodide staining based flow cytometry (reference value: 26.12%); format: functional
# MDA-MB-231 [14] = assay: Induction of cell cycle arrest in human MDA-MB-231 cells assessed as accumulation at G2/M phase at 10 uM after 24 hrs by propidium iodide staining based flow cytometry (reference value: 18.86%); format: functional
# MDA-MB-231 [15] = assay: Induction of apoptosis in human MDA-MB-231 cells assessed as fragmented nuclei at compound IC50 after 24 hrs by […] staining-based fluorescence microscopic analysis; format: functional, cell-based
# MDA-MB-231 [16] = assay: Induction of apoptosis in human MDA-MB-231 cells assessed as chromatin condensation at compound IC50 after 24 hrs by […] staining-based fluorescence microscopic analysis; format: functional, cell-based
# MDA-MB-231 [17] = assay: Induction of apoptosis in human MDA-MB-231 cells assessed as appearance of horseshoe shaped nuclei at compound IC50 after 24 hrs by […] staining-based fluorescence microscopic analysis; format: functional, cell-based
# MDA-MB-231 [18] = assay: Disruption of mitochondrial membrane potential in human MDA-MB-231 cells at compound IC50 after 24 hrs by rhodamine 123 staining-based spectrofluorometric analysis; format: functional
# MDA-MB-231 [19] = assay: Induction of ROS generation in human MDA-MB-231 cells at compound IC50 after 24 hrs by DCFDA staining-based spectrofluorometric analysis relative to control; format: functional, cell-based
# MDA-MB-231 [20] = assay: Induction of apoptosis in human MDA-MB-231 cells assessed as pyknosis at compound IC50 after 24 hrs by […] staining-based fluorescence microscopic analysis; format: functional, cell-based
SMILES,IC50 (A549) [µM],IC50 (DU-145) [µM],IC50 (BT-549) [µM],IC50 (MDA-MB-231 [1]) [µM],IC50 (MCF-10A) [µM],also measured
COc1cc(/C=C2\C(=O)Nc3ccc(Cl)cc32)ccc1OCCCN1CCN(c2ccccn2)CC1,> 20,> 20,> 20,14.8,51.3,
COc1cc(/C=C2\C(=O)Nc3ccc(Cl)cc32)ccc1OCCCN1CCN(c2ncccc2C(F)(F)F)CC1,9.53,1.61,1.53,1.26,41.3,Activity (MDA-MB-231 [2]): Active; Activity (MDA-MB-231 [3]): Active; Activity (MDA-MB-231 [4]): Active; Activity (MDA-MB-231 [5]): 68.53%; Activity (MDA-MB-231 [6]): Active; Activity (MDA-MB-231 [7]): 17.93%; Activity (MDA-MB-231 [8]): 13.45%; Activity (MDA-MB-231 [9]): 77.62%; Activity (MDA-MB-231 [10]): 11.74%; Activity (MDA-MB-231 [11]): 10.54%; Activity (MDA-MB-231 [12]): 84.74%; Activity (MDA-MB-231 [13]): 5.81%; Activity (MDA-MB-231 [14]): 9.42%; Activity (MDA-MB-231 [15]): Active; Activity (MDA-MB-231 [16]): Active; Activity (MDA-MB-231 [17]): Active; Activity (MDA-MB-231 [18]): 40%; Activity (MDA-MB-231 [19]): Active; Activity (MDA-MB-231 [20]): Active
COc1cc(/C=C2\C(=O)Nc3ccc(C)cc32)ccc1OCCCN1CCN(c2ncccc2C(F)(F)F)CC1,> 20,> 20,> 20,> 20,,
COc1cc(/C=C2\C(=O)Nc3ccc(Cl)cc32)ccc1OCCCN1CC(C)OC(C)C1 (configuration not stated),6.25,2.71,2.77,1.99,54.6,Activity (MDA-MB-231 [2]): Active; Activity (MDA-MB-231 [3]): Active; Activity (MDA-MB-231 [4]): Active; Activity (MDA-MB-231 [6]): Active; Activity (MDA-MB-231 [15]): Active; Activity (MDA-MB-231 [16]): Active; Activity (MDA-MB-231 [17]): Active; Activity (MDA-MB-231 [18]): 28%; Activity (MDA-MB-231 [19]): Active; Activity (MDA-MB-231 [20]): Active
COc1cc(/C=C2\C(=O)Nc3ccc(Cl)cc32)ccc1OCCN1CCOCC1,14.7,4.43,3.52,3.31,61.3,
COc1cc(/C=C2\C(=O)Nc3ccccc32)ccc1OCCN1CCOCC1,> 20,> 20,> 20,> 20,,
COc1cc(/C=C2\C(=O)Nc3ccc(Cl)cc32)ccc1OCCCN1CCOCC1,5.5,2.91,2.79,2.51,> 100,
COc1cc(/C=C2\C(=O)Nc3ccc(Cl)cc32)ccc1OCCCN1CCN(C)CC1,11.3,2.15,2.17,1.75,43.6,Activity (MDA-MB-231 [2]): Active; Activity (MDA-MB-231 [3]): Active; Activity (MDA-MB-231 [4]): Active; Activity (MDA-MB-231 [6]): Active; Activity (MDA-MB-231 [15]): Active; Activity (MDA-MB-231 [16]): Active; Activity (MDA-MB-231 [17]): Active; Activity (MDA-MB-231 [18]): 32%; Activity (MDA-MB-231 [19]): Active; Activity (MDA-MB-231 [20]): Active
COc1cc(/C=C2\C(=O)Nc3ccccc32)ccc1OCCCN1CCN(c2ccccn2)CC1,> 20,> 20,> 20,> 20,,
COc1cc(/C=C2\C(=O)Nc3ccccc32)ccc1OCCCn1nc(C)cc1C,> 20,> 20,> 20,> 20,,
COc1cc(/C=C2\C(=O)Nc3ccc(F)cc32)ccc1OCCN1CCOCC1,> 20,> 20,> 20,> 20,,
COc1cc(/C=C2\C(=O)Nc3ccc(C)cc32)ccc1OCCCN1CCOCC1,> 20,> 20,> 20,> 20,,
COc1cc(/C=C2\C(=O)Nc3ccccc32)ccc1OCCCN1CC(C)OC(C)C1 (configuration not stated),> 20,> 20,> 20,15.2,,
COc1cc(/C=C2\C(=O)Nc3ccc(C)cc32)ccc1OCCN1CCOCC1,> 20,> 20,> 20,9.5,> 100,
COc1cc(/C=C2\C(=O)Nc3ccccc32)ccc1OCCCN1CCc2ccccc21,> 20,> 20,> 20,> 20,,
COc1cc(/C=C2\C(=O)Nc3ccccc32)ccc1OCCCN1CCOCC1,> 20,> 20,> 20,> 20,,
COc1cc(/C=C2\C(=O)Nc3ccccc32)ccc1OCCCN1CCN(C)CC1,3.35,2.23,2.53,2.07,> 100,
COc1cc(/C=C2\C(=O)Nc3ccc(Br)cc32)ccc1OCCN1CCOCC1,> 20,> 20,> 20,> 20,,
COc1cc(/C=C2\C(=O)Nc3ccccc32)ccc1OCCCN1CCN(c2ncccc2C(F)(F)F)CC1,> 20,> 20,> 20,> 20,,
COc1cc(/C=C2\C(=O)Nc3ccc(C)cc32)ccc1OCCCN1CC(C)OC(C)C1 (configuration not stated),> 20,> 20,> 20,11.5,,
